PubChem BioAssay (NCI)
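Method: 48-hour compound exposure of cells in 96-well plates, five concentrations, linear interpolation of endpoints. TGI denotes the concentration required for complete inhibition of growth.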

Columns and labels:
Assay in all cases: NCI anticancer screen, dose series, 48 h
786-0 renal = test system: 786-0 renal
CCRF-CEM leukemia = test system: CCRF-CEM leukemia
DLD-1 colon = test system: DLD-1 colon
DMS 273 small cell lung = test system: DMS 273 small cell lung
HCC-2998 colon = test system: HCC-2998 colon
HCT-116 colon = test system: HCT-116 colon
HL-60(TB) leukemia = test system: HL-60(TB) leukemia
HOP-62 NSCLC = test system: HOP-62 NSCLC
K-562 leukemia = test system: K-562 leukemia
KM20L2 colon = test system: KM20L2 colon
LOX IMVI melanoma = test system: LOX IMVI melanoma
LXFL 529 NSCLC = test system: LXFL 529 NSCLC
M14 melanoma = test system: M14 melanoma
MOLT-4 leukemia = test system: MOLT-4 leukemia
NCI-H226 lung = test system: NCI-H226 lung
NCI-H23 lung = test system: NCI-H23 lung
NCI-H460 lung = test system: NCI-H460 lung
NCI-H522 lung = test system: NCI-H522 lung
OVCAR-4 ovarian = test system: OVCAR-4 ovarian
RPMI-8226 leukemia = test system: RPMI-8226 leukemia
RXF 393 renal = test system: RXF 393 renal
SF-539 CNS = test system: SF-539 CNS
SK-MEL-28 melanoma = test system: SK-MEL-28 melanoma
SNB-19 CNS = test system: SNB-19 CNS
SNB-75 CNS = test system: SNB-75 CNS
SNB-78 CNS = test system: SNB-78 CNS
U251 CNS = test system: U251 CNS
A498 renal = test system: A498 renal
A549 NSCLC = test system: A549 NSCLC
ACHN renal = test system: ACHN renal
COLO 205 colon = test system: COLO 205 colon
DMS 114 small cell lung = test system: DMS 114 small cell lung
EKVX NSCLC = test system: EKVX NSCLC
HCT-15 colon = test system: HCT-15 colon
HT29 colon = test system: HT29 colon
IGROV1 ovarian = test system: IGROV1 ovarian
KM12 colon = test system: KM12 colon
M19-MEL melanoma = test system: M19-MEL melanoma
MALME-3M melanoma = test system: MALME-3M melanoma
OVCAR-3 ovarian = test system: OVCAR-3 ovarian
OVCAR-5 ovarian = test system: OVCAR-5 ovarian
OVCAR-8 ovarian = test system: OVCAR-8 ovarian
SF-268 CNS = test system: SF-268 CNS
SF-295 CNS = test system: SF-295 CNS
SK-MEL-2 melanoma = test system: SK-MEL-2 melanoma
SK-OV-3 ovarian = test system: SK-OV-3 ovarian
SN12C renal = test system: SN12C renal
SR leukemia = test system: SR leukemia
SW-620 colon = test system: SW-620 colon
TK-10 renal = test system: TK-10 renal
UACC-257 melanoma = test system: UACC-257 melanoma
UACC-62 melanoma = test system: UACC-62 melanoma
UO-31 renal = test system: UO-31 renal

With Cc1cnc(-c2ccccc2)o1 the TGI (786-0 renal) was > 100 µM, the TGI (CCRF-CEM leukemia) was > 100 µM and the TGI (DLD-1 colon) was > 100 µM. The TGI (DMS 273 small cell lung) was > 100 µM, the TGI (HCC-2998 colon) was > 100 µM and the TGI (HCT-116 colon) was > 100 µM. The TGI (HL-60(TB) leukemia) was > 100 µM, the TGI (HOP-62 NSCLC) was > 100 µM and the TGI (K-562 leukemia) was > 100 µM. For the same molecule, the TGI (KM20L2 colon) was > 100 µM, the TGI (LOX IMVI melanoma) was > 100 µM and the TGI (LXFL 529 NSCLC) was > 100 µM. The TGI (M14 melanoma) was > 100 µM, the TGI (MOLT-4 leukemia) was > 100 µM and the TGI (NCI-H226 lung) was > 100 µM. For the same molecule, the TGI (NCI-H23 lung) was > 100 µM, the TGI (NCI-H460 lung) was > 100 µM and the TGI (NCI-H522 lung) was > 100 µM. For the same molecule, the TGI (OVCAR-4 ovarian) was > 100 µM, the TGI (RPMI-8226 leukemia) was > 100 µM and the TGI (RXF 393 renal) was > 100 µM. The TGI (SF-539 CNS) was > 100 µM, the TGI (SK-MEL-28 melanoma) was > 100 µM and the TGI (SNB-19 CNS) was > 100 µM. For the same molecule, the TGI (SNB-75 CNS) was > 100 µM, the TGI (SNB-78 CNS) was > 100 µM and the TGI (U251 CNS) was > 100 µM.

For O=C1C=C(Nc2ccc(Br)cc2)c2ccccc2C1=O, the TGI (786-0 renal) was 28.3 µM, the TGI (A498 renal) was 31 µM and the TGI (A549 NSCLC) was 32.8 µM. For the same molecule, the TGI (ACHN renal) was 16.2 µM, the TGI (CCRF-CEM leukemia) was 32.3 µM and the TGI (COLO 205 colon) was 31 µM. It also gave a TGI (DMS 114 small cell lung) of 18 µM, a TGI (DMS 273 small cell lung) of 25.7 µM and a TGI (EKVX NSCLC) of 32.5 µM. It also gave a TGI (HCC-2998 colon) of 28.5 µM, a TGI (HCT-116 colon) of 26.5 µM and a TGI (HCT-15 colon) of 18.9 µM. It also gave a TGI (HL-60(TB) leukemia) of 22.4 µM, a TGI (HOP-62 NSCLC) of 30.7 µM and a TGI (HT29 colon) of 34 µM. For the same molecule, the TGI (IGROV1 ovarian) was 33.2 µM, the TGI (K-562 leukemia) was 34 µM and the TGI (KM12 colon) was 29.6 µM. For the same molecule, the TGI (KM20L2 colon) was 39.3 µM, the TGI (LXFL 529 NSCLC) was 25.4 µM and the TGI (M14 melanoma) was 28.8 µM. The TGI (M19-MEL melanoma) was 3.29 µM, the TGI (MALME-3M melanoma) was 28.7 µM and the TGI (MOLT-4 leukemia) was 30.5 µM. The TGI (NCI-H226 lung) was 38.2 µM, the TGI (NCI-H23 lung) was 15.3 µM and the TGI (NCI-H460 lung) was 23.8 µM. For the same molecule, the TGI (NCI-H522 lung) was 25.5 µM, the TGI (OVCAR-3 ovarian) was 19.7 µM and the TGI (OVCAR-4 ovarian) was 6.13 µM. For the same molecule, the TGI (OVCAR-5 ovarian) was 35.3 µM, the TGI (OVCAR-8 ovarian) was 29.3 µM and the TGI (RPMI-8226 leukemia) was 24.9 µM. It also gave a TGI (RXF 393 renal) of 30.6 µM, a TGI (SF-268 CNS) of 27.6 µM and a TGI (SF-295 CNS) of 29.8 µM. For the same molecule, the TGI (SF-539 CNS) was 30.3 µM, the TGI (SK-MEL-2 melanoma) was 30.1 µM and the TGI (SK-MEL-28 melanoma) was 31.3 µM. The TGI (SK-OV-3 ovarian) was 31 µM, the TGI (SN12C renal) was 29.6 µM and the TGI (SNB-19 CNS) was 29.2 µM. For the same molecule, the TGI (SNB-75 CNS) was 23.3 µM, the TGI (SR leukemia) was 16.5 µM and the TGI (SW-620 colon) was 27.2 µM. For the same molecule, the TGI (TK-10 renal) was 33.8 µM, the TGI (U251 CNS) was 16 µM and the TGI (UACC-257 melanoma) was 26.5 µM. The TGI (UACC-62 melanoma) was 15.3 µM and the TGI (UO-31 renal) was 29.6 µM.
